Where two headings read alike, the source gives them in different places. Marks after values point to notes of the source that are not given here.
Experiments:
[1] = test system: A431-2B1 cells (OATP2B1 expressing); assay: Fluorescence-based cytotoxicity assay, OATP2B1-expressing A431-2B1 mCh; conditions: for IC50: 9 concentration points, at least 3 replicates; for SR, co-culture / SR, monoculture: IC50 A431 eGFP / IC50 A4312B1 mCh; for SR (A431-2B1 vs parental A431), screening of DTP Oncology Set IV: primary screen, Fig. 4 inset; for SR, co-culture / SR (A431-2B1 vs parental A431), screening of DTP Oncology Set IV: co-culture
OATP2B1 [2] = molecular target: T1, OATP2B1 (Homo sapiens, UniProt O94956); assay: Inhibition of OATP2B1-mediated Cascade Blue uptake (microplate-based uptake assay, A431-2B1 cells)
T1 sequence (O94956 1-709): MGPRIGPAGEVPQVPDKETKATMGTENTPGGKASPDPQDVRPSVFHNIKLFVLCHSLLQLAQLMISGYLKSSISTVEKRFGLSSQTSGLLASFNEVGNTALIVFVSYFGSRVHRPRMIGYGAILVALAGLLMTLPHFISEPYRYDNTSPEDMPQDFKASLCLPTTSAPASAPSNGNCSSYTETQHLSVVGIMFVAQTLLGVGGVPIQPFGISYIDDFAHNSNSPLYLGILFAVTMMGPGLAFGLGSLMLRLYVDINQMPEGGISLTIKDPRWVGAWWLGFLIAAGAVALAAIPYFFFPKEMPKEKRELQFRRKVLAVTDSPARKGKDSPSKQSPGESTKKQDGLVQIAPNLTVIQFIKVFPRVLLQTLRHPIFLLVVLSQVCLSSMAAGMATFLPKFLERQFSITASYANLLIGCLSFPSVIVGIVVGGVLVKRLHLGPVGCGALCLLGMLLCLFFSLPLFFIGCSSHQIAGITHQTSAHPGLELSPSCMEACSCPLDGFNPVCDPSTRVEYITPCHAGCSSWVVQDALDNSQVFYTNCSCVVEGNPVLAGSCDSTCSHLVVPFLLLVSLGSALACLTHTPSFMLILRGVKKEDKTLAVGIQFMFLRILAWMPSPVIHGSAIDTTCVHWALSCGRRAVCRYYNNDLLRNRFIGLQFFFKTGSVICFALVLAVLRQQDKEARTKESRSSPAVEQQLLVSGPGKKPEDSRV

A431 cells [3] = assay: Fluorescence-based cytotoxicity assay, parental A431 eGFP
Mes-Sa/Dx5 cells = assay: Fluorescence-based cytotoxicity assay, Mes-Sa/Dx5 eGFP; conditions: triple co-culture screen; for RR (Dx5): resistance ratio = IC50 Mes-Sa/Dx5 / IC50 parental Mes-Sa
ABCG2 = assay: Fluorescence-based cytotoxicity assay, ABCG2-expressing A431-G2 mOr; conditions: human
A431B1 cells = assay: PrestoBlue-based cytotoxicity assay, A431B1; assay type: cell-based, human; conditions: Homo sapiens; PrestoBlue viability assay
Protocol: (§1) All experiments were performed using a robotic pipetting workstation (Hamilton Robotics STAR Let). Cells were seeded at a final cell density of 1875 cells per well in 384-well plates in the triple co-culture (625 cells from each lines) and at 2500 cells per well in the A431 control and A431-2B1 co-culture (1250 cells from both) systems. Co-cultured cells were incubated for 24 h at 37 °C and 5% CO2 under humidified atmosphere prior to the addition of drugs. […] Data were exported to a custom-made program for determining growth inhibition curves for each cell line. In confirmatory screens, compounds were tested with the same method in a nine-point dose response format. For validation, compounds were confirmed in cytotoxicity assays using the PrestoBlue cell viability reagent (ThermoFisher), according to the manufacturer’s instructions.

OATP2B1 [4] = assay: Fluorescence-based cytotoxicity assay, OATP2B1-expressing A431-2B1 mCh; conditions: human
[5] = test system: Mes-Sa-B1 cells (Pgp overexpressing); assay: Fluorescence-based cytotoxicity assay, Mes-Sa-B1 mOr; conditions: resistance ratio = IC50 Mes-Sa-B1 / IC50 parental Mes-Sa; triple co-culture screen
[6] = test system: A431-B1 cells (ABCB1/P-glycoprotein expressing); assay: Fluorescence-based cytotoxicity assay, ABCB1-expressing A431-B1 mCh; conditions: resistance ratio = IC50 A431B1 / IC50 parental A431; triple co-culture screen
ABCB1 (P-glycoprotein) = assay: as above; conditions: human
A431 cells [7] = assay: PrestoBlue-based cytotoxicity assay, A431; assay type: cell-based, human; conditions: Homo sapiens, A-431; PrestoBlue viability assay
Protocol: as §1

A431G2 cells = assay: PrestoBlue-based cytotoxicity assay, A431G2; assay type: cell-based, human; conditions: Homo sapiens; PrestoBlue viability assay
Protocol: as §1

[8] = A431-2B1 mCherry cells (OATP2B1-expressing), monoculture
[9] = Homo sapiens, A-431, read-out: IC50 (µM) A431 eGFP, co-culture
[10] = Homo sapiens, A-431, read-out: IC50 (µM) A431 eGFP, monoculture

| SMILES | IC50 at […] (OATP2B1 [4]) [µM] | IC50 at […] (OATP2B1 [4]; [8]) [µM] | SR, co-culture [1] | SR, monoculture [1] | SR (A431-2B1 vs parental A431), screening of DTP Oncology Set IV [1] | RR (Mes-Sa-B1) [5] | IC50 (OATP2B1 [2]) [µM] | RR (A431B1) [6] | IC50 (A431 cells [3]; [9]) [µM] | IC50 (A431 cells [3]; [10]) [µM] | RR (Dx5) (Mes-Sa/Dx5 cells) | further results |
| --- | --- | --- | --- | --- | --- | --- | --- | --- | --- | --- | --- | --- |
| Cc1c(N)nc([C@H](CC(N)=O)NC[C@H](N)C(N)=O)nc1C(=O)N[C@H](C(=O)N[C@H](C)[C@@H](O)[C@H](C)C(=O)N[C@H](C(=O)NCCc1nc(-c2nc(C(=O)NCCC[S+](C)C)cs2)cs1)[C@@H](C)O)[C@@H](OC1OC(CO)C(O)C(O)C1OC1OC(CO)C(O)C(OC(N)=O)C1O)c1cnc[nH]1 (some centres unmarked) [NSC-125066, Bleomycin] | – | – | – | – | – | – | – | – | – | – | – | IC50 ([1]; read-out: IC50 (µM) A4312B1 mCh, co-culture, co-culture with A431 eGFP): 0.83 µM; IC50 ([1]; read-out: IC50 (µM) A4312B1 mCh, monoculture): 1.5 µM; IC50 (OATP2B1 [2]; read-out: IC50, inhibition of OATP2B1-mediated Cascade Blue (CB) uptake, CB 10 µM, 30 min, average ± SD): 64.2 ± 6.1 µM; IC50 (A431 cells [3]; read-out: IC50 (µM) A431 eGFP, co-culture, co-culture with A431-2B1 mCh, 9 concentration points, at least 3 replicates): 7.47 µM; IC50 (A431 cells [3]; read-out: IC50 (µM) A431 eGFP, monoculture, 9 concentration points, at least 3 replicates): 16.3 µM; SR (Mes-Sa/DX5) (Mes-Sa/Dx5 cells; selectivity ratio = IC50 parental Mes-Sa / IC50 Mes-Sa/Dx5): 57.8 |
| COc1cc([C@@H]2c3cc4c(cc3[C@@H](O[C@@H]3O[C@@H]5CO[C@@H](C)O[C@H]5[C@H](O)[C@H]3O)[C@H]3COC(=O)[C@H]23)OCO4)cc(OC)c1O [NSC-141540, Etoposide] | 0.82 | 1.99 | 9.06^** | 3.2^* | 3.017 | 16.97 | 1.88 ± 0.32 | > 4.14 | 7.45 | 6.42 | > 61.73 | IC50 at […] (ABCG2): 4.05 µM; IC50 at […] (ABCG2; A431-G2 mOrange cells (ABCG2-expressing), monoculture): 12 µM; IC50 (A431B1 cells): 5.49 µM; IC50 at […] (ABCB1 (P-glycoprotein)): 13.8 µM; IC50 at […] (ABCB1 (P-glycoprotein); A431-B1 mCherry cells (ABCB1-expressing), monoculture): 46.3 µM; IC50 (A431 cells [7]): 1.19 µM; IC50 (A431G2 cells): 3.43 µM; IC50 (A431 cells [3]; Homo sapiens, A-431, read-out: IC50 A431, monoculture): 6.1 µM; IC50 (A431 cells [3]; Homo sapiens, A-431, read-out: IC50 A431, triple co-culture): 1.69 µM |
| CC/C(=C(\c1ccccc1)c1ccc(OCCN(C)C)cc1)c1ccccc1 [NSC-180973, Tamoxifen] | – | – | – | 0.9 | 3.49 | – | 11 ± 0.7 | – | – | – | – | – |
| CC(=O)O[C@@]12CO[C@@H]1C[C@H](O)[C@@]1(C)C(=O)[C@H](O)C3=C(C)[C@@H](OC(=O)[C@H](O)[C@@H](NC(=O)OC(C)(C)C)c4ccccc4)C[C@@](O)([C@@H](OC(=O)c4ccccc4)[C@H]21)C3(C)C [NSC-628503, Docetaxel] | 0.002 | 0.00022 | – | 4.35^* | 4.00 | 275.00 | 11.3 ± 0.38 | 26.38 | 0.08 | 0.00097 | 295.00 | – |
| CCCCCOC(=O)Nc1nc(=O)n([C@@H]2O[C@H](C)[C@@H](O)[C@H]2O)cc1F [NSC-712807, Capecitabine] | 44.5 | 129 | 4.62^** | 3.04^** | 3.41 | – | 124 ± 6.42 | – | 205 | 391 | – | – |
